# pIC50: −log10 of the molar value.
# Target: T1, human S1P1 receptors (Homo sapiens, UniProt P21453)
# T1 construct: expressed in transfected cells; host or cells: HeLa (human cervix carcinoma, ATCC CCL2), HeLa-S1P1/Gα16 cell clone 1
# Experiment: Human S1P Receptor Calcium FLIPR Antagonist Assay, HeLa Gα16 S1P1
# Type: cell-based
# Conditions: HeLa-S1P1/Gα16 cells; antagonism of Ca2+ signal of probing agonist GNF-AC-1 at EC80
# Excerpt: Human S1P Receptor Calcium FLIPR Antagonist Assays
# The assay measures intracellular changes of Ca^2+ mediated by the synthetic probing agonist 3-{[2-(2-Trifluoromethyl-biphenyl-4-yl)-benzo[b]thiophen-5-ylmethyl]-amino}-propionic acid (GNF-AC-1) in the HeLa-S1P1/Gα16 cell clone 1: HeLa (human cervix carcinoma, ATCC CCL2) cells stably expressing N-terminally myc-tagged human S1P1 receptors (GenBank™ accession No. NM_001400; UNIPROT P21453) and promiscuous Gα16 protein (GenBank™ accession number M63904, Swissprot P30679) are cultured at 37° C., 5% CO2, and 95% relative humidity. The cells are plated in 384 well black plates (10,000 cells per well). After 24 hours the cells are loaded with Fluo4-AM (1.6 μM in HBSS and 2.5 mM probenicid) for 1 hour at 37° C. After washing, the cells are transferred to the FLIPR. The test compounds are added at different concentrations (≦30 μM) in HBSS in the presence of 0.1% BSA and changes in fluorescence are recorded (indication of agonism). The probing agonist is added 15 minutes afterwards to the wells at a concentration giving 80% of the maximal activity (EC80). After each addition time points are collected as follows: 20 time points (2 seconds) before the addition of the agonist (Fmin) and 60 time points (1 or 2 seconds) after the addition of the probing agonist. This allows the determination of the maximal fluorescence (Fmax). The ratio (Fmax-Fmin)/Fmin is plotted against the log of the concentration of the test compounds and the IC50 (relative antagonism) is determined with the help of XLfit-4 software. […] A dose response curve of the probing agonist is determined on each plate in parallel. The compounds of the invention are typically active in this assay at a concentration ranging typically from <1 nM to 30 μM, usually from less than 1 nanomolar to 1 micromolar.
# T1 sequence (P21453 whole entry): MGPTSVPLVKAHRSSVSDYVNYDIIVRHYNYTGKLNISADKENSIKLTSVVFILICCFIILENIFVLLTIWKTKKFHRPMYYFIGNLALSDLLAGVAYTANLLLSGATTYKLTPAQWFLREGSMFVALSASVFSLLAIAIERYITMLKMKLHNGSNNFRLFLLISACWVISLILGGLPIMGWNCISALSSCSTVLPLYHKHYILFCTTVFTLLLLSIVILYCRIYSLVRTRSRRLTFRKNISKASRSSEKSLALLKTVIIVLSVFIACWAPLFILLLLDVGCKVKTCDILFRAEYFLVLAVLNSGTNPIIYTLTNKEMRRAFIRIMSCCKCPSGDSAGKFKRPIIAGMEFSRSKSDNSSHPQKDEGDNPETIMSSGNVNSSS
row,pIC50,SMILES
1,8.26,"Cc1cc(S(=O)(=O)Nc2cccc(-c3cc(C)c(C(=O)N[C@@H](CN)C(=O)O)c(C)c3)c2)c(C)cc1Cl [Example 142, (S)-3-Amino-2-{[3′-(4-chloro-2,5-dimethyl-benzenesulfonylamino)-3,5-dimethyl-biphenyl-4-carbonyl]-amino}-propionic acid]"
2,8.10,"Cc1cc(S(=O)(=O)Nc2cccc(-c3cc(C)c(C(=O)N[C@@H](C)C(N)=O)c(C)c3)c2)c(C)cc1Cl [Example 151, 3′-(4-Chloro-2,5-dimethyl-benzenesulfonylamino)-3,5-dimethyl-biphenyl-4-carboxylic acid ((S)-1-carbamoyl-ethyl)-amide]"
3,8.30,"CC(=O)N1CC(NC(=O)c2ccc(-c3cccc(NS(=O)(=O)c4cc(C)c(Cl)cc4C)c3)cc2C)(C(=O)O)C1 [Example 56, 1-Acetyl-3-{[3′-(4-chloro-2,5-dimethyl-benzenesulfonylamino)-3-methyl-biphenyl-4-carbonyl]-amino}-azetidine-3-carboxylic acid]"
4,9.10,"Cc1cc(S(=O)(=O)Nc2cccc(-c3ccc(C(=O)NC4(C(=O)O)CC4)c(C)c3)c2)c(C)cc1Cl [Example 57, 1-{[3′-(4-Chloro-2,5-dimethyl-benzenesulfonylamino)-3-methyl-biphenyl-4-carbonyl]-amino}-cyclopropanecarboxylic acid]"
5,8.70,"Cc1cc(S(=O)(=O)Nc2cccc(-c3cc(C)c(C(=O)NC4(C(=O)O)CCOCC4)c(C)c3)c2)c(C)cc1Cl [Example 146, 4-{[3′-(4-Chloro-2,5-dimethyl-benzenesulfonylamino)-3,5-dimethyl-biphenyl-4-carbonyl]-amino}-tetrahydro-pyran-4-carboxylic acid]"
6,8.46,"Cc1cc(S(=O)(=O)Nc2cccc(-c3cc(C)c(C(=O)NC4(C(=O)O)CCC4)c(C)c3)c2)c(C)cc1Cl [Example 147, 1-{[3′-(4-Chloro-2,5-dimethyl-benzenesulfonylamino)-3,5-dimethyl-biphenyl-4-carbonyl]-amino}-cyclobutanecarboxylic acid]"
7,8.80,"Cc1cc(S(=O)(=O)Nc2cccc(-c3cc(C)c(C(=O)NC4(C(=O)O)CN(C)C4)c(C)c3)c2)c(C)cc1Cl [Example 150, 3-{[3′-(4-Chloro-2,5-dimethyl-benzenesulfonylamino)-3,5-dimethyl-biphenyl-4-carbonyl]-amino}-1-methyl-azetidine-3-carboxylic acid]"
8,9.40,"Cc1cc(S(=O)(=O)Nc2cccc(-c3ccc(C(=O)N[C@H](C(=O)O)C(C)(C)O)c(C)c3)c2)c(C)cc1Cl [Example 61, (S)-2-{[3′-(4-Chloro-2,5-dimethyl-benzenesulfonylamino)-3-methyl-biphenyl-4-carbonyl]-amino}-3-hydroxy-3-methyl-butyric acid]"
9,8.70,"Cc1cc(S(=O)(=O)Nc2cccc(-c3cc(C)c(C(=O)NC4(C(=O)O)CNC4)c(C)c3)c2)c(C)cc1Cl [Example 145, 3-{[3′-(4-Chloro-2,5-dimethyl-benzenesulfonylamino)-3,5-dimethyl-biphenyl-4-carbonyl]-amino}-azetidine-3-carboxylic acid]"
10,9.00,"Cc1cc(S(=O)(=O)Nc2cccc(-c3cc(C)c(C(=O)NCC(=O)O)c(C)c3)c2)c(C)cc1Cl [Example 137, {[3′-(4-Chloro-2,5-dimethyl-benzenesulfonylamino)-3,5-dimethyl-biphenyl-4-carbonyl]-amino}-acetic acid]"
11,9.22,"Cc1cc(S(=O)(=O)Nc2cccc(-c3cc(C)c(C(=O)N[C@@H](CO)C(=O)O)c(C)c3)c2)c(C)cc1Cl [Example 131, (S)-2-{[3′-(4-Chloro-2,5-dimethyl-benzenesulfonylamino)-3,5-dimethyl-biphenyl-4-carbonyl]-amino}-3-hydroxy-propionic acid]"
12,8.30,"Cc1cc(S(=O)(=O)Nc2cccc(-c3cc(C)c(C(=O)N[C@H](CN)C(=O)O)c(C)c3)c2)c(C)cc1Cl [Example 143, (R)-3-Amino-2-{[3′-(4-chloro-2,5-dimethyl-benzenesulfonylamino)-3,5-dimethyl-biphenyl-4-carbonyl]-amino}-propionic acid]"
13,8.96,"Cc1cc(S(=O)(=O)Nc2cccc(-c3cc(C)c(C(=O)N[C@@H](C)C(=O)O)c(C)c3)c2)c(C)cc1Cl [Example 132, (S)-2-{[3′-(4-Chloro-2,5-dimethyl-benzenesulfonylamino)-3,5-dimethyl-biphenyl-4-carbonyl]-amino}-propionic acid]"
14,8.77,"CC[C@H](NC(=O)c1c(C)cc(-c2cccc(NS(=O)(=O)c3cc(C)c(Cl)cc3C)c2)cc1C)C(=O)O [Example 135, (S)-2-{[3′-(4-Chloro-2,5-dimethyl-benzenesulfonylamino)-3,5-dimethyl-biphenyl-4-carbonyl]-amino}-butyric acid]"
15,8.15,"Cc1cc(S(=O)(=O)Nc2cccc(-c3cc(C)c(C(=O)N[C@H](C)C(=O)O)c(C)c3)c2)c(C)cc1Cl [Example 134, (R)-2-{[3′-(4-Chloro-2,5-dimethyl-benzenesulfonylamino)-3,5-dimethyl-biphenyl-4-carbonyl]-amino}-propionic acid]"
16,8.52,"Cc1cc(S(=O)(=O)Nc2cccc(-c3cc(C)c(C(=O)N[C@@H](CO)C(N)=O)c(C)c3)c2)c(C)cc1Cl [Example 153, 3′-(4-Chloro-2,5-dimethyl-benzenesulfonylamino)-3,5-dimethyl-biphenyl-4-carboxylic acid ((S)-1-carbamoyl-2-hydroxy-ethyl)-amide]"

# The remaining lines, values behind:
row,SMILES,pIC50
1,"Cc1cc(S(=O)(=O)Nc2cccc(-c3ccc(C(=O)NCC(=O)O)cc3)c2)c(C)cc1Cl [Example 23, {[3′-(4-Chloro-2,5-dimethyl-benzenesulfonylamino)-biphenyl-4-carbonyl]-amino}-acetic acid]",8.49
2,"Cc1cc(S(=O)(=O)Nc2cccc(-c3ccc(C(=O)N[C@H](CC(=O)O)c4ccccc4)cc3)c2)c(C)cc1Cl [Example 36, (R)-3-{[3′-(4-Chloro-2,5-dimethyl-benzenesulfonylamino)-biphenyl-4-carbonyl]-amino}-3-phenyl-propionic acid]",8.03
3,"Cc1cc(S(=O)(=O)Nc2cccc(-c3cnc(C(=O)N[C@@H](CO)C(=O)O)cn3)c2)c(C)cc1Cl [Example 79, (S)-2-({5-[3-(4-Chloro-2,5-dimethyl-benzenesulfonylamino)-phenyl]-pyrazine-2-carbonyl}-amino)-3-hydroxy-propionic acid]",8.30
4,"Cc1cc(S(=O)(=O)Nc2cccc(-c3ccc(CN[C@H](CO)C(=O)O)cc3)c2)c(C)cc1Cl [Example 157, (R)-2-{[3′-(4-Chloro-2,5-dimethyl-benzenesulfonylamino)-biphenyl-4-ylmethyl]-amino}-3-hydroxy-propionic acid]",8.33
5,Cc1cc(S(=O)(=O)Nc2cccc(-c3ccc(C(=O)N[C@H](CO)C(=O)O)cc3)c2)c(C)cc1Cl [Example 86],8.82
6,"COc1cc(-c2cccc(NS(=O)(=O)c3cc(C)c(Cl)cc3C)c2)ccc1C(=O)N[C@@H](CO)C(=O)O [Example 71, (S)-2-{[3′-(4-Chloro-2,5-dimethyl-benzenesulfonylamino)-3-methoxy-biphenyl-4-carbonyl]-amino}-3-hydroxy-propionic acid]",9.00
7,"COc1cc(-c2cccc(NS(=O)(=O)c3cc(C)c(Cl)cc3C)c2)ccc1C(=O)NCC(=O)O [Example 70, {[3′-(4-Chloro-2,5-dimethyl-benzenesulfonylamino)-3-methoxy-biphenyl-4-carbonyl]-amino}-acetic acid]",9.00
8,"COC[C@H](NC(=O)c1ccc(-c2cccc(NS(=O)(=O)c3cc(C)c(Cl)cc3C)c2)cc1C)C(=O)O [Example 60, (S)-2-{[3′-(4-Chloro-2,5-dimethyl-benzenesulfonylamino)-3-methyl-biphenyl-4-carbonyl]-amino}-3-methoxy-propionic acid]",8.82
9,"Cc1cc(S(=O)(=O)Nc2cccc(-c3ccc(C(=O)N[C@H](C(=O)O)[C@H](C)O)c(C)c3)c2)c(C)cc1Cl [Example 59, (2S,3S)-2-{[3′-(4-Chloro-2,5-dimethyl-benzenesulfonylamino)-3-methyl-biphenyl-4-carbonyl]-amino}-3-hydroxy-butyric acid]",9.15
10,"Cc1cc(S(=O)(=O)Nc2cccc(-c3ccc(C(=O)N[C@H](CO)C(=O)O)c(C)c3)c2)c(C)cc1Cl [Example 46, (R)-2-{[3′-(4-Chloro-2,5-dimethyl-benzenesulfonylamino)-3-methyl-biphenyl-4-carbonyl]-amino}-3-hydroxy-propionic acid]",9.10
11,"Cc1cc(S(=O)(=O)Nc2cccc(-c3ccc(C(=O)N[C@H](C(=O)O)[C@@H](C)O)c(C)c3)c2)c(C)cc1Cl [Example 47, (2S,3R)-2-{[3′-(4-Chloro-2,5-dimethyl-benzenesulfonylamino)-3-methyl-biphenyl-4-carbonyl]-amino}-3-hydroxy-butyric acid]",8.82

# From US20100029609A1 (priority 2006, published 2010)
